Measurements as given in patent US20180179292A1, “RKIP AGONISM IN THE TREATMENT AND PREVENTION OF HEART FAILURE” (Leibniz-Institut für analytische Wissenschaften- ISAS-e.V., priority 2015, published 2018).
Marks after values point to notes of the source that are not given here.

Legend:
Wt and RKIP-tg mice = test: Left ventricular catheterization with esmolol infusion; assay type: in vivo, mouse
Description: For left ventricular pressure measurements we inserted a 1.4F pressure catheter (Millar Instruments) into the right carotid artery and advanced it to the left ventricular chamber. During measurement we injected esmolol (12 μg/min for 1 min) or dobutamine (in increasing doses: 75, 150, 375, 750 and 1500 ng/min) into the V. jugularis. We analyzed data using the Chart software (Chart5.4, AD Instruments) as previously described^60. We excluded mice with heart rates below 450 bpm (or below 430 bpm in the case of β1KO or RKIP-tg/β1KO mice).

[1] = test system: RyR2, PLN and TnI phosphorylation; test: Isoproterenol infusion with or without ICI 118,551, immunoblot of heart lysates; assay type: in vivo, mouse
Text: Immunoblot quantification of (a) pPLN(S16), (b) pTnI (SS23/24), (c) pRyR2(S2808) and pRyR2(S2814) in heart lysates of untreated (Con) and isoproterenol-treated mice and mice treated with Iso in combination with ICI 118,551. pPLN(S16), n=13; pTnI(SS23/24), n=11; pRyR2(S2808), n=12; n are mice per group; mean±SEM; *, p<0.05 vs. Con. Immunoblot analysis of Con vs. Iso for RyR2 phosphorylation (pRyR2[S2808] and pRyR2[S2814]) show significant differences when a t-test analysis is applied (#, p<0.05 vs. Con).
We intravenously infused isoproterenol (1.1 μg/min for 2 min) with or without ICI 118,551 (0.14 μg/min for 2 min) via the V. jugularis as indicated. We pretreated mice with pertussis toxin (PTX; 300 μg/kg body weight; i.p) for 24 h as indicated. Mice were sacrificed and hearts were used for Western blot analyses. Efficiency of Gαi inhibition by PTX was evaluated by in vitro PTX-catalyzed ADP ribosylation in the presence of [^32P]-nicotinamide adenine dinucleotide ([^32P]NAD). […] After filtration through a 200 μm-mesh, we determined the protein content of the tissue homogenate and then incubated 30 μg of protein with 0.1 μM [^32P]NAD (800 Ci/mmol) in a buffer containing 20 mM Tris-HCl (pH7.6), 15 mM thymidine, 1 mM EDTA, 1 mM ATP, 0.1 mM GDP and 1 μg of PTX (preactivated) for 1 h at 30° C. […] Proteins were separated on SDS-PAGE and incorporated [^32P] was assessed by Phospholmager analysis. […]

Wt mice = test: Chronic isoproterenol infusion via osmotic minipumps in Wt mice (echocardiography, interstitial fibrosis); assay type: in vivo, mouse; conditions: mean ± SEM
Description: (§1) Echocardiographic measurements and histological analysis of interstitial fibrosis of wild-type (Wt) and RKIP transgenic (RKIP-tg) mice before and after 4 weeks of isoproterenol application via osmotic minipumps (Iso; 30 mg/kg/d). Shown are measurements of wall thicknesses (interventricular septal [IVS] and left ventricular posterior wall [LVPW]), left ventricular internal dimension (LVID), fractional shortening (FS), ejection fraction (EF), heart rates and the quantification of interstitial fibrosis (arbitrary units) of Sirius Red-stained left ventricular myocyrdial sections. Values represent mean (±SEM); *, p<0.05 vs. Con; #, p<0.05 vs. Wt Iso; $, p<0.05 vs. Wt Con. n represent the number of mice (for the analysis of interstitial fibrosis one transverse section was analyzed per mouse).
(§2) Osmotic minipumps (Alzet, model 1004) were implanted subcutaneously in male 8-week old Wt and RKIP-tg mice (C57/BL/6J background). The implanted pumps continuously released isoproterenol for 4 weeks (30 mg/kg body weight/day).
(§3) We performed transthoracic echocardiograms in a blinded manner using the Vevo700 or Vevo2100 high-resolution imaging systems (VisualSonics) and a 30-MHz probe. We obtained values for end-diastolic septal and posterior wall thicknesses as well as end-diastolic and -systolic internal diameters from 2D M-mode images in the short axis view at the proximal level of the papillary muscles. We obtained peak blood flow velocities at the site of TAC [Vmax (millimetres per second)] from pulsed-waved Doppler measurements. We calculated fractional shortening (FS), ejection fraction (EF), and aortic pressure gradients (mmHg) by VisualSonics Cardiac Measurements software. The shown data represent averages of at least six cardiac cycles per animal. We excluded mice with heart rates below 450 bpm (or below 430 bpm in the case of β1KO or RKIP-tg/(β1KO mice).
(§4) After fixation of hearts in 4% (m/v) paraformaldehyde, hearts were embedded in paraffin. Sections (2 μm) were stained with haematoxylin and eosin or with Sirius Red as described previously^60. For quantification of fibrosis, we stained left ventricular sections with Sirius Red and subsequently analyzed […] by semi-automated image analyses in blinded manner. For immunostaining, we used Vectastain Elite ABC Reagent with biotinylated goat-anti-rabbit IgG in combination with diaminobenzidine (DAB) and glucose oxidase (Sigma) similarly as described previously^60,61. We counterstained nuclei with haematoxylin.

RKIP-tg mice = test: Chronic isoproterenol infusion via osmotic minipumps in RKIP-tg mice (echocardiography, interstitial fibrosis); assay type: in vivo, mouse; conditions: mean ± SEM
Description: as §1, §2, §3, §4

RKIP [2] = test: RKIP expression in neonatal rat cardiomyocytes (Western blot); assay type: cell-based; conditions: NRCM, 75 μg/ml, 30 h
Description: 500 000 NRCM/Well were plated in 12 Well plates, cultured for 24 h and subsequently treated with the indicated compounds for 30 h inkubiert. Cells were lysed, Western blots performed and signals were quantified using ImageJ (n=11). Shown are SEM; *. p=0.0003
We homogenized left ventricular tissue or cells in lysis buffer (1% [v/v] Triton-X-100, 5 mM EDTA, 300 mM NaCl, 50 mM Tris [pH7.4], supplemented with protease and phosphatase inhibitors). We removed cell debris by centrifugation (10 min, 1000×g, 4° C.) and used lysates for Western blot analysis: We determined protein concentrations and used equal amounts of protein for immunoblot analysis. We separated proteins by SDS-PAGE and transferred them to PVDF membranes. We blocked membranes for 1 h with 5% (w/v) fat-free milk dissolved in 10 mM Tris (pH7.6), 100 mM NaCl and 0.1% (v/v) Tween-20, incubated membranes with primary antibodies overnight at 4° C., thereafter with secondary antibodies conjugated with horseradish peroxidase (HRP) and used the Pierce™ ECL Plus Western blotting kit for detection. To average our immunoblot experiments and to present semi-quantitative results, we quantified immunoblot signals using ImageJ.
For the detection of RKIP phosphorylation (“activation as GRK2 inhibitor”), we used antibodies directed againt Ser153-phosphorylation of RKIP (pRKIP[hSer153], sc-32623, Santa Cruz Biotechnology; pRKIP [rSer153], sc-32622, Santa Cruz Biotechnology). For RKIP expression levels we used antibodies directed against RKIP (RKIP, sc5422, Santa Cruz Biotechnology; RKIP antibodies raised against recombinant GST-RKIP as antigen (Lorenz et al., 2003).
We tested an anti-CD20 antibody (such as rituximab) and an anti-VEGF antibody (such as bevacizumab) and several other therapeutic antibodies (obtained from the hospital pharmacy, Uniklinik Wiirzburg) on RKIP expression and RKIP activation (Ser153 phosphorylation) in neonatal rat cardiomyocytes as well as cardiomyocyte contractility.

RKIP [3] = test: RKIP activation (Ser153 phosphorylation, pRKIP) in neonatal rat cardiomyocytes (Western blot); assay type: cell-based; conditions: NRCM, 25 and 75 μg/ml, 30 h
Description: NRCM were treated with rituximab (25 μg u. 75 μg/ml) or bevacizumab (25 μg u. 75 μg/ml) for 30 h and Western blot analysis performed. Gβ was used as loading control.
NRCM were treated with rituximab (25 μg u. 75 μg/ml) for 30 h and Western blot analysis and quantification using ImageJ was performed. Gβ was used as loading control. SEM, n=3, *, p=0.0004
NRCM were treated with rituximab (25 μg u. 75 μg/ml) for 30 h and Western blot analysis and quantification using ImageJ was performed. Gβ was used as loading control. SEM, n=4, *, p=0.0004
We homogenized left ventricular tissue or cells in lysis buffer (1% [v/v] Triton-X-100, 5 mM EDTA, 300 mM NaCl, 50 mM Tris [pH7.4], supplemented with protease and phosphatase inhibitors). We removed cell debris by centrifugation (10 min, 1000×g, 4° C.) and used lysates for Western blot analysis: We determined protein concentrations and used equal amounts of protein for immunoblot analysis. We separated proteins by SDS-PAGE and transferred them to PVDF membranes. […] To average our immunoblot experiments and to present semi-quantitative results, we quantified immunoblot signals using ImageJ. […]

[4] = test system: neonatal rat cardiomyocytes (NRCM); test: Contractile activity of neonatal rat cardiomyocytes; assay type: cell-based; conditions: in the presence of isoprenaline (50 nM), 33° C., beats per minute
Description: NRCM were cultured for 24 h and transduced as indicated with a control virus (LacZ) or a virus encoding RKIP-wt and/or treated with rituximab as indicated. The spontaneous contractions were measured at 33° C. for one minute and normalized for each experiment to LacZ under unstimulated conditions. NRCM were then stimulated with isoproterenol (50 nM) and after 2 min contractions were counted again. SEM; *, p<0.0001, n=5
Neonatal rat cardiomyocytes were isolated as described (Lorenz et al. Nature 2003, 426:574-579; Vidal et al., Cardiovasc. Res. 2012, 96:255-264). Cardiomyocytes were transduced by adenoviruses or treated with indicated antibodies. To monitor the contractile activity of cardiomyocytes, live cells were examined on a Zeiss Axiovert 135 microscope.

[5] = 4 weeks isoproterenol 30 mg/kg/d via osmotic minipumps
[6] = 4 weeks isoproterenol 30 mg/kg/d, Sirius Red-stained left ventricular sections

COC(=O)CCc1ccc(OCC(O)CNC(C)C)cc1 (stereo not drawn) [Esmolol, esmolol]
rates of contraction and relaxation (dP/dtmax, dP/dtmin) (Wt and RKIP-tg mice; esmolol 12 μg/min for 1 min, RKIP-tg mice): largely attenuated increased rates of contraction and relaxation | heart rates (Wt and RKIP-tg mice; esmolol 12 μg/min for 1 min into V. jugularis, Wt and RKIP-tg mice): effectively reduced heart rates

Cc1ccc(OCC(O)C(C)NC(C)C)c2c1CCC2 (stereo not drawn) [ICI 118,551]
RyR2(S2808/S2814) phosphorylation ([1]; isoproterenol plus ICI 118,551 (0.14 μg/min for 2 min i.v.) vs. isoproterenol alone): much stronger phosphorylation of RyR2 | PLN and TnI phosphorylation ([1]; isoproterenol plus ICI 118,551 vs. isoproterenol alone): hardly affected PLN and TnI phosphorylation

CC(C)NCC(O)c1ccc(O)c(O)c1 (stereo not drawn) [Iso, isoproterenol]
EF (Wt mice; [5]): 73.0 ± 2.52^$ % | FS (Wt mice; [5]): 41.6 ± 2.00^$ % of LVID | Heart rate (Wt mice; [5]): 654 ± 25* bpm | IVS, end-diastolic (Wt mice; [5]): 0.74 ± 0.039* mm | LVID, end-diastolic (Wt mice; [5]): 3.69 ± 0.172 mm | LVPW, end-diastolic (Wt mice; [5]): 0.76 ± 0.036* mm | Interstitial fibrosis (Wt mice; [6]): 2.05 ± 0.336* arbitrary units | EF (RKIP-tg mice; [5]): 87.1 ± 1.64*^# % | FS (RKIP-tg mice; [5]): 55.9 ± 1.98*^# % of LVID | Heart rate (RKIP-tg mice; [5]): 668 ± 21* bpm | IVS, end-diastolic (RKIP-tg mice; [5]): 0.81 ± 0.026* mm | LVID, end-diastolic (RKIP-tg mice; [5]): 3.08 ± 0.086 mm | LVPW, end-diastolic (RKIP-tg mice; [5]): 0.84 ± 0.022* mm | Interstitial fibrosis (RKIP-tg mice; [6]): 1.05 ± 0.263*^# arbitrary units

bevacizumab: anti-VEGF antibody, recombinant humanized monoclonal IgG1
RKIP expression (RKIP [2]): most up-regulation of RKIP expression | "active" RKIP (Ser153-phosphorylation) (RKIP [3]): increased

panitumumab: anti-EGFR antibody
RKIP expression (RKIP [2]): up-regulation of RKIP expression

rituximab: anti-CD20 antibody
RKIP expression (RKIP [2]): even more prominent up-regulation of RKIP | "active" RKIP (Ser153-phosphorylation) (RKIP [3]): increased | NRCM contractility [4]: increased NRCM contractility
